Results published in patent US20080274892A1, “Novel Haloalkylsulfonanilide Derivative, Herbicide, and Method of Use Thereof” (priority 2005, published 2008).

How the values were obtained:
[1] = tested on: bulrush; assay: Test Example 1: herbicidal efficacy on rice paddy weeds pre-emergence; type: in vivo, Scirpus juncoides; settings: dosage 1000 g/ha, 21 days
[2] = tested on: false pimpernel; assay: as above; type: in vivo, Lindernia pyxidaria; settings: dosage 1000 g/ha, 21 days
[3] = tested on: barnyard glass; assay: Test Example 2: herbicidal efficacy on rice paddy weeds post-emergence; type: in vivo, Echinochloa crus-galli; settings: dosage 1000 g/ha; post-emergence, one leaf stage; 21 days after treatment
Procedure, shortened: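 Efficacy on paddy weeds was scored on a 0 to 4 growth-inhibition scale: 4 for 90%-100%, 3 for 70%-89%, 2 for 40%-69%, 1 for 1%-39% and 0 for 0%. Barnyard glass was grown in clay loam in 75 cm^2 pots under 5 cm of water in a hot house. It was compared with untreated pots 21 days after treatment.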

[4] = tested on: bulrush; assay: as above; type: in vivo, Scirpus juncoides; settings: dosage 1000 g/ha; post-emergence, one leaf stage; 21 days after treatment
[5] = tested on: false pimpernel; assay: as above; type: in vivo, Lindernia pyxidaria; settings: dosage 1000 g/ha; post-emergence, one leaf stage; 21 days after treatment
[6] = tested on: paddy rice plant (cultivar: Nihonbare); assay: Test Example 3: phytotoxicity test for transplanted paddy rice plant; type: in vivo; settings: dosage 1000 g/ha; transplanted rice, treated 5 days after transplantation; 21 days after treatment
Procedure, shortened: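 Clay loam soil was placed in a 75 cm^2 plastic pot and flooded to a water depth of 5 cm. Two Nihonbare paddy rice plants at the two-leaf stage were transplanted 1 cm deep and grown in a hot house. After treatment, pots stayed in the hot house for 21 days, and phytotoxicity was then graded against an untreated control.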

[7] = tested on: bulrush; assay: Test Example 4: low dosage test for rice paddy weeds; type: in vivo, Scirpus juncoides; settings: 300 g/ha as an active ingredient; plants treated at the one leaf stage; 21 days after treatment; vs untreated control
Procedure, shortened: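 Compound applied as a formulation at 300 g/ha to one-leaf bulrush grown in flooded clay loam (5 cm water) in a hot house. After 21 days, growth inhibition versus untreated plants rated on a 0–4 scale, with 4 meaning 90–100%.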

[8] = tested on: transplanted paddy rice plant and Bulrush; assay: Test Example 5: selectivity between transplanted paddy rice plant and weeds; type: in vivo; settings: (highest dosage with no phytotoxicity to paddy rice)/(lowest dosage with effective level 4 on Bulrush); rice 3000-100 g/ha, Bulrush 300-10 g/ha; 21 days
Procedure, shortened: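 Scoring ran 21 days after treatment in a hothouse on a 0–4 scale (4 = 90–100%, 3 = 70–89%, 2 = 40–69%, 1 = 1–39%, 0 = none) relative to untreated plants. Post-emergence bulrush received 10, 30, 100 and 300 g/ha active ingredient. Transplanted rice received 100, 300, 1000 and 3000 g/ha to assess crop injury.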

Row | SMILES | Bulrush pre (herbicidal efficacy grade) [1] | False pimpernel pre (herbicidal efficacy grade) [2] | Burnyard grass post (herbicidal efficacy grade) [3] | Bulrush post (herbicidal efficacy grade) [4] | False pimpernel post (herbicidal efficacy grade) [5] | Phytotoxicity to paddy rice [6] | Herbicide effect to Bulrush [7] | Selective Index [8]
1 | COC(=O)N(c1ccccc1CN1C(=O)OC2CCCCC21)S(=O)(=O)C(F)(F)F (centres unmarked) [1-152] | 4 (90%-100% of herbicidal efficacy or phytotoxicity) | 4 (90%-100% of herbicidal efficacy or phytotoxicity) | 4 (90%-100% of herbicidal efficacy or phytotoxicity) | 4 (90%-100% of herbicidal efficacy or phytotoxicity) | 4 (90%-100% of herbicidal efficacy or phytotoxicity) | 1 (1%-39% of herbicidal efficacy or phytotoxicity) | 4 (90%-100% of herbicidal efficacy or phytotoxicity) | 10
2 | COC(=O)N(c1ccccc1CN1CC(C)(C(C)(C)C)OC1=O)S(=O)(=O)C(F)(F)F (centres unmarked) [1-153] | 4 (90%-100% of herbicidal efficacy or phytotoxicity) | 4 (90%-100% of herbicidal efficacy or phytotoxicity) | 4 (90%-100% of herbicidal efficacy or phytotoxicity) | 4 (90%-100% of herbicidal efficacy or phytotoxicity) | 4 (90%-100% of herbicidal efficacy or phytotoxicity) | 1 (1%-39% of herbicidal efficacy or phytotoxicity) | 4 (90%-100% of herbicidal efficacy or phytotoxicity) | 10
3 | COC(=O)N(c1ccccc1CN1CC(C)(C2CCCCC2)OC1=O)S(=O)(=O)C(F)(F)F (centres unmarked) [1-157] | 4 (90%-100% of herbicidal efficacy or phytotoxicity) | 4 (90%-100% of herbicidal efficacy or phytotoxicity) | 4 (90%-100% of herbicidal efficacy or phytotoxicity) | 4 (90%-100% of herbicidal efficacy or phytotoxicity) | 4 (90%-100% of herbicidal efficacy or phytotoxicity) | 1 (1%-39% of herbicidal efficacy or phytotoxicity) | 3 (70%-89% of herbicidal efficacy or phytotoxicity) | 3
4 | CC1(C2(C)CN(Cc3ccccc3NS(=O)(=O)C(F)(F)F)C(=O)O2)CC1 (centres unmarked) [1-167] | 4 (90%-100% of herbicidal efficacy or phytotoxicity) | 4 (90%-100% of herbicidal efficacy or phytotoxicity) | 4 (90%-100% of herbicidal efficacy or phytotoxicity) | 4 (90%-100% of herbicidal efficacy or phytotoxicity) | 4 (90%-100% of herbicidal efficacy or phytotoxicity) | 1 (1%-39% of herbicidal efficacy or phytotoxicity) | 4 (90%-100% of herbicidal efficacy or phytotoxicity) | ≧10
5 | CC(C)COC(=O)N(c1ccccc1CN1CC(C)(C2(C)CC2)OC1=O)S(=O)(=O)C(F)(F)F (centres unmarked) [1-168] | 4 (90%-100% of herbicidal efficacy or phytotoxicity) | 4 (90%-100% of herbicidal efficacy or phytotoxicity) | 4 (90%-100% of herbicidal efficacy or phytotoxicity) | 4 (90%-100% of herbicidal efficacy or phytotoxicity) | 4 (90%-100% of herbicidal efficacy or phytotoxicity) | 1 (1%-39% of herbicidal efficacy or phytotoxicity) | 4 (90%-100% of herbicidal efficacy or phytotoxicity) | 10
6 | COC(=O)N(c1ccccc1CN1CC(C)(C2(C)CC2)OC1=O)S(=O)(=O)C(F)(F)F (centres unmarked) [1-169] | 4 (90%-100% of herbicidal efficacy or phytotoxicity) | 4 (90%-100% of herbicidal efficacy or phytotoxicity) | 4 (90%-100% of herbicidal efficacy or phytotoxicity) | 4 (90%-100% of herbicidal efficacy or phytotoxicity) | 4 (90%-100% of herbicidal efficacy or phytotoxicity) | 1 (1%-39% of herbicidal efficacy or phytotoxicity) | 4 (90%-100% of herbicidal efficacy or phytotoxicity) | 10
7 | CC(C)COC(=O)N(c1ccccc1CN1CC(C2CC2)(C2CC2)OC1=O)S(=O)(=O)C(F)(F)F [1-171] | 4 (90%-100% of herbicidal efficacy or phytotoxicity) | 4 (90%-100% of herbicidal efficacy or phytotoxicity) | 4 (90%-100% of herbicidal efficacy or phytotoxicity) | 4 (90%-100% of herbicidal efficacy or phytotoxicity) | 4 (90%-100% of herbicidal efficacy or phytotoxicity) | 1 (1%-39% of herbicidal efficacy or phytotoxicity) | 4 (90%-100% of herbicidal efficacy or phytotoxicity) | 10
8 | CCC1(CC)CN(Cc2ccccc2NS(=O)(=O)C(F)(F)F)C(=S)O1 [1-178] | 4 (90%-100% of herbicidal efficacy or phytotoxicity) | 4 (90%-100% of herbicidal efficacy or phytotoxicity) | 4 (90%-100% of herbicidal efficacy or phytotoxicity) | 4 (90%-100% of herbicidal efficacy or phytotoxicity) | 4 (90%-100% of herbicidal efficacy or phytotoxicity) | 1 (1%-39% of herbicidal efficacy or phytotoxicity) | 4 (90%-100% of herbicidal efficacy or phytotoxicity) | 10
9 | CCC1(CC)CN(Cc2ccccc2N(C(=O)OCC(C)C)S(=O)(=O)C(F)(F)F)C(=S)O1 [1-179] | 4 (90%-100% of herbicidal efficacy or phytotoxicity) | 4 (90%-100% of herbicidal efficacy or phytotoxicity) | 4 (90%-100% of herbicidal efficacy or phytotoxicity) | 4 (90%-100% of herbicidal efficacy or phytotoxicity) | 4 (90%-100% of herbicidal efficacy or phytotoxicity) | 0 (0% of herbicidal efficacy or phytotoxicity) | 4 (90%-100% of herbicidal efficacy or phytotoxicity) | 33.3
10 | CCC1(C)CN(Cc2ccccc2N(C(=O)OCC(C)C)S(=O)(=O)C(F)(F)F)C(=S)O1 (centres unmarked) [1-181] | 4 (90%-100% of herbicidal efficacy or phytotoxicity) | 4 (90%-100% of herbicidal efficacy or phytotoxicity) | 4 (90%-100% of herbicidal efficacy or phytotoxicity) | 4 (90%-100% of herbicidal efficacy or phytotoxicity) | 4 (90%-100% of herbicidal efficacy or phytotoxicity) | 1 (1%-39% of herbicidal efficacy or phytotoxicity) | 4 (90%-100% of herbicidal efficacy or phytotoxicity) | 10
